Like-named read-outs stand apart in the source and are kept apart here.
Experiments:
[1] = Cytotoxicity evaluation, Cell Titer 96 AQueous One Solution; format: cell-based, human; details: human; Zluc cells, cellular viability
Description: (§1) For cytotoxicity evaluation, Zluc cells were treated with compounds as described above and cellular viability was monitored using the Cell Titer 96 AQueous One Solution Cell Proliferation Assay (Promega). Plates were then read at 490 nm in a Victor^3V 1420 multilabel counter (Perkin Elmer) and CC50 concentrations were determined using Microsoft Excel and XLfit 4.1 software.

[2] = biological target: T1, HCV NS3-NS4A protease 5a (Hepatitis C virus genotype 5a, UniProt O39928); assay: HCV protease assay (FRET peptide), genotype 5a; format: biochemical; details: genotype 5a protease; 60 min at 30° C.; read-out: IC50 Against HS3/4A 5a
T1 construct: HCV NS3-NS4A protease, which was produced according to the method of Taremi et al; made in house
Description: (§2) General procedure: Measurement of the inhibitory effect of compounds on HCV protease activity was performed using the HiLyte Fluor™ TR/QXL™ 610 FRET peptide from AnaSpec, Inc. (San Jose, Calif.) under conditions developed in-house using 2-3 nM HCV NS3-NS4A protease, which was produced according to the method of Taremi et al. (Protein Science, 1998, 7, 2143-2149). The compounds were tested at a variety of concentrations in assay buffer containing a final DMSO concentration of 5%. Reactions were allowed to proceed for 60 min at 30° C. and fluorescence measurements were recorded with a PerkinElmer Victor^3 V 1420 Multilabel Counter. The IC50 values were determined from the percent inhibition versus concentration data using a sigmoidal non-linear regression analysis based on four parameters with XLfit 4.1 software.

[3] = biological target: T2, HCV NS3-NS4A protease 4a (Hepatitis C virus genotype 4a, UniProt O39929); assay: HCV protease assay (FRET peptide), genotype 4a; format: biochemical; details: genotype 4a protease; 60 min at 30° C.; read-out: IC50 Against HS3/4A 4a
T2 construct: HCV NS3-NS4A protease, which was produced according to the method of Taremi et al; made in house
Description: as §2

[4] = biological target: T3, HCV NS3-NS4A protease 6a (Hepatitis C virus genotype 6a, UniProt O39927); assay: HCV protease assay (FRET peptide), genotype 6a; format: biochemical; details: genotype 6a protease; 60 min at 30° C.; read-out: IC50 Against HS3/4A 6a
T3 construct: HCV NS3-NS4A protease, which was produced according to the method of Taremi et al; made in house
Description: as §2

[5] = biological target: T4, HCV NS3-NS4A protease 1a (Hepatitis C virus genotype 1a, UniProt P27958); assay: HCV protease assay (FRET peptide), genotype 1a; format: biochemical; details: genotype 1a protease; 60 min at 30° C.; read-out: IC50 Against HS3/4A 1a
T4 construct: HCV NS3-NS4A protease, which was produced according to the method of Taremi et al; made in house
Description: as §2

[6] = test system: HCV genotype 1a H77 strain subgenomic luciferase replicon (H1a-luc) in Huh-7 cells; assay: HCV luciferase replicon assay, genotype 1a (H1a-luc); format: cell-based; details: for FS (1a/1b): EC50 against genotype 1a HCV divided by EC50 against genotype 1b, replicon luciferase assay; for EC50: genotype 1a H77 replicon, Huh-7 (H1a-luc), 72 hours, read-out: EC50 Against Relpicon 1a
Description: (§3) General procedure: The HCV luciferase replicon assay measures the ability of a test compound to inhibit HCV replication in cell culture after 3 days of treatment in a human hepatoma cell line (Huh-7) bearing a HCV replicon containing a luciferase-neomycin phosphotransferase fusion gene. The inhibition of HCV replication was measured by quantification of luciferase protein expression. Briefly, Huh-7 cells containing either the HCV genotype 1a H77 strain or genotype 1b Con1 strain subgenomic luciferase replicon (H1a-luc or Zluc, respectively) were grown in DMEM containing glucose, L-glutamine and sodium pyruvate, 10% fetal bovine serum (FBS), 100 IU/mL penicillin, 100 μg/mL streptomycin, 2 mM GlutaMAX, non-essential amino acids and 0.25 (H1a-luc) or 0.5 (Zluc) mg/mL G418. GlutaMAX was obtained from Invitrogen, Corp.; all other media reagents were obtained from Mediatech, Inc. For dose-response testing, the cells were seeded in 96-well plates at 1×10^4 (H1a-luc) or 7.5×10^3 (Zluc) cells/well in a volume of 50 μL and incubated at 37° C./5% CO2. Three hours after plating, 50 μL of ten 5-fold serial dilutions of compound were added, and cell cultures were incubated at 37° C./5% CO2 for 72 hours. In all cases, Huh-7 cells lacking the HCV replicon served as negative control. To assess luciferase expression, the media/compound was removed from the plates and ONE-glo Luciferase assay reagent (Promega) was added to each well. The assay plates were shaken for 3 minutes at room temperature and luciferase activity for each well was measured with a 1 sec read time on the Victor^3V multilabel counter using a 700 nm cut-off filter (Perkin Elmer). EC50 values were calculated from dose response curves from the resulting best-fit equations determined by Microsoft Excel and XLfit 4.1 software.

[7] = test system: genotype 1b HCV replicon in Zluc cells; assay: Genotype 1b HCV replicon luciferase assay with 10% FCS or 45% human serum; format: cell-based; details: EC50 in presence of 45% HS divided by EC50 in presence of 10% FCS
Description: as §3
In Table 1, the values of FS with 45% HS were determined using the genotype 1b HCV replicon luciferase screening assay using Zluc cells, except that activity in the presence of 10% fetal calf serum (FCS) or 45% human serum (HS) was determined in parallel. The fold shift (FS) with 45% HS is the EC50 value in the presence of 45% HS divided by the EC50 value in the presence of 10% FCS. FS (1a/1b) is the EC50 value against genotype 1a HCV divided by the EC50 value against the genotype 1b in the replicon luciferase screening assay.

[8] = test system: HCV genotype 1b Con1 strain subgenomic luciferase replicon (Zluc) in Huh-7 cells; assay: HCV luciferase replicon assay, genotype 1b (Zluc); format: cell-based; details: genotype 1b Con1 replicon, Huh-7 (Zluc), 72 hours, read-out: EC50 Against Relpicon 1b
Description: as §3

[9] = biological target: T5, HCV NS3-NS4A protease 1b (Hepatitis C virus genotype 1b, UniProt Q9WMX2); assay: HCV protease assay (FRET peptide), genotype 1b; format: biochemical
T5 construct: HCV NS3-NS4A protease, which was produced according to the method of Taremi et al; made in house
Description: as §2

[10] = biological target: T6, HCV NS3-NS4A protease 2a (Hepatitis C virus genotype 2a, UniProt Q99IB8); assay: HCV protease assay (FRET peptide), genotype 2a; format: biochemical; details: genotype 2a protease; 60 min at 30° C.; read-out: IC50 Against HS3/4A 2a
T6 construct: HCV NS3-NS4A protease, which was produced according to the method of Taremi et al; made in house
Description: as §2

[11] = biological target: T7, HCV NS3-NS4A protease 3a (Hepatitis C virus genotype 3a, UniProt Q81258); assay: HCV protease assay (FRET peptide), genotype 3a; format: biochemical
T7 construct: HCV NS3-NS4A protease, which was produced according to the method of Taremi et al; made in house
Description: as §2

[12] = test system: Zluc cells; assay: Cytotoxicity evaluation, Cell Titer 96 AQueous One Solution; format: cell-based, human; details: cellular viability
Description: as §1

T5 sequence (Q9WMX2 1658-1711): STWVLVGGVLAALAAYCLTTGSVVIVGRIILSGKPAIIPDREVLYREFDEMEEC
T5 sequence (Q9WMX2 1027-1208): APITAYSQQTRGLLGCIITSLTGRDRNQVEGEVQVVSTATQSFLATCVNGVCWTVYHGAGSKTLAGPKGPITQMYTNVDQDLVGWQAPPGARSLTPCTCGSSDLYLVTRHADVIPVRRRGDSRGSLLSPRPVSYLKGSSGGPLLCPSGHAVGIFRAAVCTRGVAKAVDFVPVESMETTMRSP
T6 sequence (Q99IB8 1662-1715): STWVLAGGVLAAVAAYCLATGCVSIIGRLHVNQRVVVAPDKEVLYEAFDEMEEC
T6 sequence (Q99IB8 1031-1212): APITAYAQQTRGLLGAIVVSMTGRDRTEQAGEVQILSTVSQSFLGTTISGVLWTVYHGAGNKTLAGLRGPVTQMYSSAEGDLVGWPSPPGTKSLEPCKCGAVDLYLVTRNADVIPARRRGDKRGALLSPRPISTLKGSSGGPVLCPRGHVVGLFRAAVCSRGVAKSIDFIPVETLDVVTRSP
T3 sequence (O39927 1031-1212): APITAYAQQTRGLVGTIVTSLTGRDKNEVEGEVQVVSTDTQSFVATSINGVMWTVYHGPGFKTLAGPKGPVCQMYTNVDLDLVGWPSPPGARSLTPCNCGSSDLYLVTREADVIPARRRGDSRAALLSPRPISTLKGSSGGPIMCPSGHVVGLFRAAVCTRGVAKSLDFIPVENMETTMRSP
T3 sequence (O39927 1662-1715): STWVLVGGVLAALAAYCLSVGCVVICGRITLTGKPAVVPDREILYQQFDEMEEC
T1 sequence (O39928 1659-1712): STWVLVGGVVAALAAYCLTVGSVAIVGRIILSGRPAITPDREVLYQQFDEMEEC
T1 sequence (O39928 1028-1209): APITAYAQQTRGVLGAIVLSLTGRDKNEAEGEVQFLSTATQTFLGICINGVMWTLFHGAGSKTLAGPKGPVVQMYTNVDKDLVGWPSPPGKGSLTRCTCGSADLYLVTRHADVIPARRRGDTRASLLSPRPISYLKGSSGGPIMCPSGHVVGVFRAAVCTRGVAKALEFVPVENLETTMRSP
T7 sequence (Q81258 1664-1717): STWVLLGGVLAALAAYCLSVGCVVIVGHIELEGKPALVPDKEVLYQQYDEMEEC
T7 sequence (Q81258 1033-1214): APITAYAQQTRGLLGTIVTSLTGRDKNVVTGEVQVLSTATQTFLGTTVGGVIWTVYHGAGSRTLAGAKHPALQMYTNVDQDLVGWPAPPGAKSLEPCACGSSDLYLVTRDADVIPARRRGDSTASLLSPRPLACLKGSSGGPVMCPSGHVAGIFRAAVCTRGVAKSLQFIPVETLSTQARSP
T2 sequence (O39929 1658-1711): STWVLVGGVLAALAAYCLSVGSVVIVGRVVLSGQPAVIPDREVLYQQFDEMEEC
T2 sequence (O39929 1027-1208): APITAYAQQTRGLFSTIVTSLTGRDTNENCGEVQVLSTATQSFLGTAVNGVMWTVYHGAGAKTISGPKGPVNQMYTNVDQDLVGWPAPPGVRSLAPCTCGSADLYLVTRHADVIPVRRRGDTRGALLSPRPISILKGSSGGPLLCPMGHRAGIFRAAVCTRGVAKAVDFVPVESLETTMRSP
T4 sequence (P27958 1027-1208): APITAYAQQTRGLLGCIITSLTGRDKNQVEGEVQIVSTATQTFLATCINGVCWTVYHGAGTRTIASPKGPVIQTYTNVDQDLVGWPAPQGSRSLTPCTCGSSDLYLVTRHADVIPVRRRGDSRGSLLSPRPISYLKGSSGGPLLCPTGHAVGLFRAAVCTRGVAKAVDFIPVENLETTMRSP
T4 sequence (P27958 1658-1711): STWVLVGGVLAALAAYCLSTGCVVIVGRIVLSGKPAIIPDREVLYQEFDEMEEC

**Q.** What does the source list for `COc1ccc2c(O[C@H]3CC[C@H]4C(=O)N(C)CCCC/C=C\[C@@H]5C[C@@]5(C(=O)NS(=O)(=O)C5(C)CC5)NC(=O)[C@@H]4C3)cc(-c3nc(C(F)(F)F)cs3)nc2c1C` [Compound 17b, (1R,4R,6R,15R,18S)-1-methyl-cyclopropanesulfonic acid-{18-[7-methoxy-8-methyl-2-(4-trifluoromethyl-thiazol-2-yl)-quinolin-4-yloxy]-13-methyl-2,14-dioxo-3,13-diaza-tricyclo[13.4.0.0]nonadec-7-ene-4-carbonyl}-amide, reference compound]?
**A.** CC50 [1]: > 10000 nM; IC50 [2]: < 10 nM; IC50 [3]: < 10 nM; IC50 [4]: < 10 nM; IC50 [5]: < 10 nM; FS (1a/1b) [6]: 6; EC50 ([6]; Hepatitis C virus): < 10 nM; FS with 45% HS [7]: 80; EC50 ([8]; Hepatitis C virus): < 10 nM; IC50 [9]: < 10 nM; IC50 [10]: < 10 nM; IC50 [11]: 100 to 1000 nM

**Q.** For “(1R,4R,6R,15R,18S)-1-methyl-cyclopropanesulfonic acid [18-(2,5-diphenyl-thiazol-4-yloxy)-13-methyl-2,14-dioxo-3,13-diaza-tricyclo[13.4.0.0]nonadec-7-ene-4-carbonyl]-amide [Compound D103]”, which CC50 [12] is on record?
**A.** Its CC50 is greater than 10000 nM.

**Q.** What about the “FS (1a/1b)” value [6] of the same molecule?
**A.** Its value is 113.

**Q.** And the EC50 [6]?
**A.** The EC50 was 1000 to 10000 nM.

**Q.** And the EC50 [8]?
**A.** The EC50 was 10 to 100 nM.

**Q.** What about the IC50 ([9]; genotype 1b protease, 60 min at 30° C., read-out: IC50 Against HS3/4A 1b) of the same molecule?
**A.** The IC50 was 10 to 100 nM.
